Test results taken from patent publication US9358276B2, “Methods of diagnosing and treating small intestinal bacterial overgrowth (SIBO) and SIBO-related conditions” (Cedars-Sinai Medical Center, priority 1999, dated 2016).

Tests used:
[1] = tested on: release of 5-HT from the proximal gut; test: 5-HT released by the proximal gut (ELISA of mid-gut fistula output); type: in vivo, dog; conditions: for amount of 5-HT released by the proximal gut: n=1
Protocol: To test the hypothesis that fat in the distal gut causes the release of 5-HT in the proximal gut, the amount of 5-HT collected from the output of the mid-gut fistula (proximal gut 5-HT) over a 90-minute period of buffer perfusion through both the duodenal and mid-gut fistulas (2 mL/min); buffer (control) or oleate (60 mM) was administered to the distal gut (n=1). The amount of 5-HT was determined using an ELISA kit specific for 5-HT (Sigma; Graham-Smith, D. G., The carcinoid syndrome, In: Topics in Gastroenterology, Truclove, S. C. and Lee, E. (eds.), Blackwells, London, p. 275 [1977]; Singh, S. M. et al., Concentrations of serotonin in plasma-a test for appendicitis?, Clin. Chem. 34:2572-2574 [1988]). The amount of 5-HT released by the proximal gut increased in response to fat in the distal gut from 100 μg in the control (buffer minus oleate) to 338 μg (buffer plus oleate to distal gut), showing that 5-HT is released in the proximal gut in response to fat in the distal gut. Thus, the release of 5-HT by the proximal gut can serve as a relayed signal for fat in the distal gut. The relayed release of 5-HT in the proximal gut in response to fat in the distal gut is consistent with Example 14(2), showing that slowing of intestinal transit by fat depends on an efferent 5-HT-mediated pathway to the proximal gut.
To test the hypothesis that 5-HT in the distal gut causes the release of 5-HT in the proximal gut, the amount of 5-HT collected from the output at the mid-gut fistula (Proximal gut 5-HT) over a 90-minute period of buffer perfusion through both the duodenal and mid-gut fistulas (2 mL/min each) was compared in the presence or absence of 5-HT (0.05 mg/kg/h) administered to the distal gut (n=1). 5-HT concentration was determined using an ELISA kit specific for 5-HT (Sigma). The amount of 5-HT released by the proximal gut increased from 156 μg in the control (minus distal 5-HT) to 450 μg (plus 5-HT to distal gut), implying that 5-HT is released by the proximal gut in response to 5-HT in the distal gut. Thus, the release of 5-HT by the proximal gut can serve as a relayed signal for distal gut 5-HT. This relayed release of 5-HT in the proximal gut explains the results of Example 14(6) showing that the slowing of intestinal transit by distal gut 5-HT was abolished by ondansetron in the proximal gut (efferent limb of response) as well as in the distal gut (afferent limb of response).
To test the hypothesis that the proximal gut releases 5-HT in response to lipid in the distal gut, we compared the amount of 5-HT in the output of the midgut fistula (i.e., proximal gut 5-HT) with buffered saline (control) or oleate in the distal gut. The amount of 5-HT collected over 90 min was measured using a 5-HT-specific ELISA test kit, as described herein above. Four dogs were tested.
The amount of 5-HT released from the proximal gut in response to intravenous PYY or buffered saline (Control) during buffer perfusion (2 mL/min over 90 minutes) through both the duodenal and mid-gut fistulas was measured to test the hypothesis that intravenous PYY (0.8 mg/kg/h) causes the release of 5-HT in the proximal gut. 5-HT was measured as in Example 14(9) above. The amount of 5-HT released by the proximal gut increased from 140.1 μg (Control) to 463.1 μg in response to intravenous PYY.

SIBO [2] = test: Neomycin treatment of chronic fatigue syndrome subjects with SIBO; type: in vivo, human
Protocol: Thirty of 202 subjects in the database ([…]) had received a diagnosis of chronic fatigue syndrome. Of these 30 subjects, 21 (70%) had SIBO as indicated by LBHT, but four out of the nine without SIBO had recently taken antibiotics. Therefore, the prevalence of SIBO was 21 out of 26 (81%) subjects with a diagnosis of CFS. After treatment with neomycin (500 mg twice daily, 10-day course), nine of the 21 subjects diagnosed with CFS, returned for follow-up LBHT and questionnaire. […] (Table 2).

SIBO [3] = test: Neomycin treatment of SLE subjects with SIBO; type: in vivo, human
Protocol: Fifteen of the 202 (7.4%) subjects in the database had been diagnosed with SLE. Of these 15 subjects, 13 (87%) had bacterial overgrowth, as indicated by LBHT. Four of the 15 subjects with SLE returned for follow-up LBHT and questionnaire after treatment with neomycin (500 mg twice daily for 10 days). […] (Table 3).

Molecule	amount of 5-HT released by the proximal gut ([1]; 60 mM oleate to distal gut without intravenous PYY)	amount of 5-HT released by the proximal gut ([1]; 60 mM oleate to distal gut, 90 min, control 100 μg)	amount of proximal gut 5-HT ([1]; oleate in distal gut, 90 min, buffer 82.7±20.53 ng, four dogs)	eradication of SIBO (LBHT) (SIBO [2]; all nine CFS subjects)	VAS score Fatigue, After Antibiotic (SIBO [2]; nine CFS patients)	VAS score Bloating, After Antibiotic (SIBO [2]; nine CFS patients, neomycin 500 mg twice daily, 10-day course)	VAS score Fatigue, After Antibiotic (SIBO [3]; four SLE patients)	VAS score Gas, After Antibiotic (SIBO [3]; four SLE patients)	VAS score Joint Pains, After Antibiotic (SIBO [3]; four SLE patients)	VAS score Bloating, After Antibiotic (SIBO [3]; four SLE patients, neomycin 500 mg twice daily for 10 days)	LBHT result after treatment (SIBO [3]; four SLE subjects)
CCCCCCCC/C=C\CCCCCCCC(=O)[O-].[Na+] [oleate, sodium oleate]	509.8 µg	338 µg	211.75 ± 35.44 ng								
neomycin				at least partially eradication of SIBO	3.5 ± 1.4	2.3 ± 1.7	3.5 ± 1.4	1.9 ± 1.7	0.5 ± 0.6	1.3 ± 1.3	negative for SIBO
